From ChEMBL document CHEMBL2073802, “Increase in doxorubicin cytotoxicity by inhibition of P-glycoprotein activity with lomerizine” (Biol Pharm Bull, 2001)

Target: ATP-dependent translocase ABCB1 (Homo sapiens, UniProt P08183)
Experiment: TP_TRANSPORTER: increase in Calcein intracellular accumulation (Calcein: 1 uM, Lomerizine: 10 uM) in K562/DOX cells
Assay type: functional, cell-based
Settings: k562/adr

Sequence of ATP-dependent translocase ABCB1 (P08183 whole entry): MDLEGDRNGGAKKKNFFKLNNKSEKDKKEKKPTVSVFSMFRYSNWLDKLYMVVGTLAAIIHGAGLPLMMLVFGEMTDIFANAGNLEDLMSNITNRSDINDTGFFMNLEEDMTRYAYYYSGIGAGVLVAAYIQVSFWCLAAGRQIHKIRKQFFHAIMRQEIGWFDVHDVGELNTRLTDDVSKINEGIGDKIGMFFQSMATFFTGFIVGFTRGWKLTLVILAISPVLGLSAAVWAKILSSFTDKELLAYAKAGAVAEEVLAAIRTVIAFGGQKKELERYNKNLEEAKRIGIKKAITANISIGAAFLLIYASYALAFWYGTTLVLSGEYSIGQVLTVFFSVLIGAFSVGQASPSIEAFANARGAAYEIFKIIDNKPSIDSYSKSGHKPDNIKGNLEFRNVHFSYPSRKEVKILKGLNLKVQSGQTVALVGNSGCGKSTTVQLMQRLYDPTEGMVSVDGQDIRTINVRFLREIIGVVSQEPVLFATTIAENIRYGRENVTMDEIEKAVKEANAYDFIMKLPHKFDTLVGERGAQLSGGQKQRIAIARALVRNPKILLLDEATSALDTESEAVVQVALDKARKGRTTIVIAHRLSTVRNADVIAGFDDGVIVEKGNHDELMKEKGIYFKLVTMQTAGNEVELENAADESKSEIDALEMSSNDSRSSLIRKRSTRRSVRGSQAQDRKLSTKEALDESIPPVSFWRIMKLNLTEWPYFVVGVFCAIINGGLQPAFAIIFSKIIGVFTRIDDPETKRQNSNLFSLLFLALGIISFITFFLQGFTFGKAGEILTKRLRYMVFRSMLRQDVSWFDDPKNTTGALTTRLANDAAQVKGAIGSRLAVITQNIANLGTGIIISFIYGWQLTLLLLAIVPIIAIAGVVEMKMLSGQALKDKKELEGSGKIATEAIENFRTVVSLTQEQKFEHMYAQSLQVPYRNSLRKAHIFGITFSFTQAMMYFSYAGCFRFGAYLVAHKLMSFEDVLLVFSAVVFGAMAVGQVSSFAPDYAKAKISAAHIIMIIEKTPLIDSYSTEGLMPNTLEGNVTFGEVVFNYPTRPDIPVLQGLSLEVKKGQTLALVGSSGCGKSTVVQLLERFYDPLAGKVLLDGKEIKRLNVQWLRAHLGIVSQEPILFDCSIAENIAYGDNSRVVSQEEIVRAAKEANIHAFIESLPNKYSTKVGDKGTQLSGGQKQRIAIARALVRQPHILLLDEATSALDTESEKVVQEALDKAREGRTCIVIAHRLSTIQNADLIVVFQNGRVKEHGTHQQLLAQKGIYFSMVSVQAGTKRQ

Activity: inhibitor [+]
Compound: COc1ccc(CN2CCN(C(c3ccc(F)cc3)c3ccc(F)cc3)CC2)c(OC)c1OC [LOMERIZINE]
